These results are taken from ChEMBL document CHEMBL1139906, “Structure function analysis of benzalacetone synthase from Rheum palmatum” (Bioorg Med Chem Lett, 2007).

In one data set the test system is Rheum palmatum. Put plainly: Activity of Rheum palmatum benzalacetone synthase S338V mutant.
Substrate in data set [1]: CC(C)(COP(=O)(O)OP(=O)(O)OC[C@H]1O[C@@H](n2cnc3c(N)ncnc32)[C@H](O)[C@@H]1OP(=O)(O)O)[C@@H](O)C(=O)NCCC(=O)NCCSC(=O)/C=C/c1ccc(O)cc1
Nature of the data set: Activity of Rheum palmatum benzalacetone synthase.

As a reminder, the Km is the concentration of substrate that gives half-maximal velocity. In general, kcat refers to the number of substrate molecules converted per active site and unit of time at saturation. In the case of `CC(C)(COP(=O)(O)OP(=O)(O)OC[C@H]1O[C@@H](n2cnc3c(N)ncnc32)[C@H](O)[C@@H]1OP(=O)(O)O)[C@@H](O)C(=O)NCCC(=O)NCCSC(=O)/C=C/c1ccc(O)cc1`, in the data set with Rheum palmatum, the Km was determined as 9.4 µM and the kcat was found to be 3.18 min⁻¹.

B1: Polyketide synthase BAS (Rheum palmatum), Q94FV7 (protein)
chain: MATEEMKKLATVMAIGTANPPNCYYQADFPDFYFRVTNSDHLINLKQKFKRLCENSRIEKRYLHVTEEILKENPNIAAYEATSLNVRHKMQVKGVAELGKEAALKAIKEWGQPKSKITHLIVCCLAGVDMPGADYQLTKLLDLDPSVKRFMFYHLGCYAGGTVLRLAKDIAENNKGARVLIVCSEMTTTCFRGPSETHLDSMIGQAILGDGAAAVIVGADPDLTVERPIFELVSTAQTIVPESHGAIEGHLLESGLSFHLYKTVPTLISNNIKTCLSDAFTPLNISDWNSLFWIAHPGGPAILDQVTAKVGLEKEKLKVTRQVLKDYGNMSSATVFFIMDEMRKKSLENGQATTGEGLEWGVLFGFGPGITVETVVLRSVPVIS
On to B1, for which, in data set [1], the Km was determined as 10 µM and the kcat was determined as 1.79 min⁻¹.
